In paper PMC5512571 (Cancer cell, 2017):

Legend:
Experiment in all cases: in vitro kinase panel profiling
Format in all cases: biochemical
TYK2 = TYK2 (Homo sapiens, UniProt P29597)
JAK1 = JAK1 (Homo sapiens, UniProt P23458)
JAK3 = molecular target: T1, JAK3 (Homo sapiens, UniProt P52333)
T1 sequence (P52333 1-1124): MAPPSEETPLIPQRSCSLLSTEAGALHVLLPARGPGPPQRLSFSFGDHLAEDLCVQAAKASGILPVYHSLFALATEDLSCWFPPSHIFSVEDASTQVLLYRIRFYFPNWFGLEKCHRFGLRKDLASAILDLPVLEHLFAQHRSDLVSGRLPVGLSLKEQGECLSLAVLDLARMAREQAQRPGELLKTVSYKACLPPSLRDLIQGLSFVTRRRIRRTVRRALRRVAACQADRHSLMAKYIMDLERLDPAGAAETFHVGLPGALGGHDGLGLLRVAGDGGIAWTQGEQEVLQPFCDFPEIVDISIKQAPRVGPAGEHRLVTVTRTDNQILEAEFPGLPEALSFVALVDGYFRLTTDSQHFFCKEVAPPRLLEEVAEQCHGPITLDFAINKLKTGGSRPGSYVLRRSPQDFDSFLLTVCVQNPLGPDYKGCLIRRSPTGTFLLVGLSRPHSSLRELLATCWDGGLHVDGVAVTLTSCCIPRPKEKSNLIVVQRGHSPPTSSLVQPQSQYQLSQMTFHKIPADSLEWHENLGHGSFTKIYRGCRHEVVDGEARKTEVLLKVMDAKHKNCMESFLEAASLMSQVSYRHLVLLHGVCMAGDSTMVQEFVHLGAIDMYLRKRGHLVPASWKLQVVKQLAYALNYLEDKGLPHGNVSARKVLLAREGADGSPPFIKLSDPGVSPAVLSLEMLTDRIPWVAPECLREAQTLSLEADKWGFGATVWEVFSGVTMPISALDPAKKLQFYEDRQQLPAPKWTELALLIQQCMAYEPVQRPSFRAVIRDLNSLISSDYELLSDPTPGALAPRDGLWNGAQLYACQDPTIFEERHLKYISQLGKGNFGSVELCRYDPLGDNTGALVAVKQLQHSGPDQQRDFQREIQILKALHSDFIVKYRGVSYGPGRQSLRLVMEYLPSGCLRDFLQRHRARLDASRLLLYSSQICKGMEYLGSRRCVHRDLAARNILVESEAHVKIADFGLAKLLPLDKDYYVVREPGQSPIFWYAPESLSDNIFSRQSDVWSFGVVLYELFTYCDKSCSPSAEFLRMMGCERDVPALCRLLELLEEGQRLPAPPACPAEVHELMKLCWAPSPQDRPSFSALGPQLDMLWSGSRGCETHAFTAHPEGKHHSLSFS

FLT3 = FLT3 (Homo sapiens, UniProt P36888)
NUAK2 = molecular target: T2, NUAK2 (Homo sapiens, UniProt Q9H093)
T2 sequence (Q9H093 1-628): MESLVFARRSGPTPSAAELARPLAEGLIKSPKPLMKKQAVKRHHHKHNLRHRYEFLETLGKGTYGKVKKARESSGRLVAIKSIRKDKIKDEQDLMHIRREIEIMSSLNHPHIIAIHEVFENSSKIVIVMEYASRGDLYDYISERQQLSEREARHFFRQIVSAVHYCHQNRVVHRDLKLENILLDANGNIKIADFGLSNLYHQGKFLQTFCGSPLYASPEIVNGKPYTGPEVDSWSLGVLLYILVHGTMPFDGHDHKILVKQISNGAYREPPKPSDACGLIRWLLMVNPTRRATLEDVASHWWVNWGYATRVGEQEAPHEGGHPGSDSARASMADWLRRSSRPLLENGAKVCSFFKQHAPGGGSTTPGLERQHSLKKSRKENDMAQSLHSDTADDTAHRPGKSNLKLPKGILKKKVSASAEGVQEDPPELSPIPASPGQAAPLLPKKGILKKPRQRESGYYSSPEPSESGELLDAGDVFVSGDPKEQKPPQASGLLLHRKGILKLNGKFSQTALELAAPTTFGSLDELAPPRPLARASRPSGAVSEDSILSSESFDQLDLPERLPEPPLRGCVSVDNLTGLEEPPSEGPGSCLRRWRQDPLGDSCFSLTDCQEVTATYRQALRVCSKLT

LRRK2 = LRRK2 (Homo sapiens, UniProt Q5S007)
JAK2 = JAK2 (Homo sapiens, UniProt O60674)
NUAK1 = molecular target: T3, NUAK1 (Homo sapiens, UniProt O60285)
T3 sequence (O60285 1-661): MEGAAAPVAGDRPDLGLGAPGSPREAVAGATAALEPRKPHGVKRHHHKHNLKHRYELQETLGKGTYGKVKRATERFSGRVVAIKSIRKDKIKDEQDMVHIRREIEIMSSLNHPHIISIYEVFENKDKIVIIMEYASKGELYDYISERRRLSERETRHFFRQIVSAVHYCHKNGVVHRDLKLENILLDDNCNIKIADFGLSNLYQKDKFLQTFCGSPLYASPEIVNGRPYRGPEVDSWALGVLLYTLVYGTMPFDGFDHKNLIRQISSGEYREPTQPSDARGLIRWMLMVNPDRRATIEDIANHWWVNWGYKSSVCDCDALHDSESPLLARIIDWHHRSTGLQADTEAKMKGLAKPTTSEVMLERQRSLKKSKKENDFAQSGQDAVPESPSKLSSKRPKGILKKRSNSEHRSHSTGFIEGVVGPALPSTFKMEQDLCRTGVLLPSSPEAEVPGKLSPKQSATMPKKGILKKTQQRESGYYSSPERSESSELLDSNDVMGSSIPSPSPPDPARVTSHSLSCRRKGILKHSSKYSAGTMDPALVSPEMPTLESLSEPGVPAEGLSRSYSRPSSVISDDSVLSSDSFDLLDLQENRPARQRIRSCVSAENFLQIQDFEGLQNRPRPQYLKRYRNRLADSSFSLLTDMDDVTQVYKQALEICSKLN

TNK1 = molecular target: T4, TNK1 (Homo sapiens, UniProt Q13470)
T4 sequence (Q13470 1-666): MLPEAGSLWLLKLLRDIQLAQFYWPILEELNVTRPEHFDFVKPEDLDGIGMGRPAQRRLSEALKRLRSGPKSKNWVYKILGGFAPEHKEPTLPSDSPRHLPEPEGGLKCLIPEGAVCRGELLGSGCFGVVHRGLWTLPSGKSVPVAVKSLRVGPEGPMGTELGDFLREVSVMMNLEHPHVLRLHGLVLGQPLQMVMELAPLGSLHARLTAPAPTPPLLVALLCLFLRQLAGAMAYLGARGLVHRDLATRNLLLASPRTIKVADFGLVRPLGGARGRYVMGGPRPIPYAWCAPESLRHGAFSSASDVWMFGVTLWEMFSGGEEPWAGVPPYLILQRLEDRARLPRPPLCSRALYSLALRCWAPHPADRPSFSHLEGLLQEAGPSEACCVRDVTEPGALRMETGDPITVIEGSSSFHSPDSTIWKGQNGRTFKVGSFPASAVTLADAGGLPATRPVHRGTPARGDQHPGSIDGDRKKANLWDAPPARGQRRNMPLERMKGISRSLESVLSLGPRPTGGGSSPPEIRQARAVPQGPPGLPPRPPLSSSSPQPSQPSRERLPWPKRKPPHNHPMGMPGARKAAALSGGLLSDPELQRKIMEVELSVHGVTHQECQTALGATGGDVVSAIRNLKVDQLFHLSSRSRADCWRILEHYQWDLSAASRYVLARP

Sequence of JAK1 (P23458 whole entry): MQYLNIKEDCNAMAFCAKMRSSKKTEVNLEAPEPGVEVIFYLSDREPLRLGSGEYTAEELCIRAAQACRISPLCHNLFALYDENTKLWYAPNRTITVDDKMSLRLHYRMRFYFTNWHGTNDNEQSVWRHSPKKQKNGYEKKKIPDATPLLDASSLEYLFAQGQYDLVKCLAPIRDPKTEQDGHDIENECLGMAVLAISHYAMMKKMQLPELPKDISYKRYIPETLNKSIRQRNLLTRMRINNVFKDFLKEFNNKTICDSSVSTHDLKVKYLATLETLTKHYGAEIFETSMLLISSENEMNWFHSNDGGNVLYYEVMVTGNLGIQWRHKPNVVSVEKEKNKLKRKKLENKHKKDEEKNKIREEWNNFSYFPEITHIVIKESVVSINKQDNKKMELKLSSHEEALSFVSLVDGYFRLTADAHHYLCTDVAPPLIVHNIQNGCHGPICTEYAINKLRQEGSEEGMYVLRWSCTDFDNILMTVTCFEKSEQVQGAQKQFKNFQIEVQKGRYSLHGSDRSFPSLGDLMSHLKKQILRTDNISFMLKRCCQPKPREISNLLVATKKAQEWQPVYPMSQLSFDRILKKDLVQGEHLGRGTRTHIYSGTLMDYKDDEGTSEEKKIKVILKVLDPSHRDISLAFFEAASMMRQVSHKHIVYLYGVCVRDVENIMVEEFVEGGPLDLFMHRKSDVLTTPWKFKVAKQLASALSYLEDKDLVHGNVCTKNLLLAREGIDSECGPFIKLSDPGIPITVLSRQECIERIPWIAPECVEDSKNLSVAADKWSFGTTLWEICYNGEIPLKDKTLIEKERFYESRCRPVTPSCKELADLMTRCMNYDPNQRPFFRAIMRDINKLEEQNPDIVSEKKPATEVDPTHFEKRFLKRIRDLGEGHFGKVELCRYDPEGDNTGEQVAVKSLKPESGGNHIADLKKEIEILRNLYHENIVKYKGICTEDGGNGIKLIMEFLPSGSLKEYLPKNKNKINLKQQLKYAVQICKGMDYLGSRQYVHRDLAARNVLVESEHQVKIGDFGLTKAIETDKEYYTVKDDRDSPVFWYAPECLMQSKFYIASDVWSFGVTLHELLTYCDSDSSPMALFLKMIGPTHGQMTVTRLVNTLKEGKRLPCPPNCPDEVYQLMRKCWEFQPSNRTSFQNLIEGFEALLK
Sequence of FLT3 (P36888 27-993): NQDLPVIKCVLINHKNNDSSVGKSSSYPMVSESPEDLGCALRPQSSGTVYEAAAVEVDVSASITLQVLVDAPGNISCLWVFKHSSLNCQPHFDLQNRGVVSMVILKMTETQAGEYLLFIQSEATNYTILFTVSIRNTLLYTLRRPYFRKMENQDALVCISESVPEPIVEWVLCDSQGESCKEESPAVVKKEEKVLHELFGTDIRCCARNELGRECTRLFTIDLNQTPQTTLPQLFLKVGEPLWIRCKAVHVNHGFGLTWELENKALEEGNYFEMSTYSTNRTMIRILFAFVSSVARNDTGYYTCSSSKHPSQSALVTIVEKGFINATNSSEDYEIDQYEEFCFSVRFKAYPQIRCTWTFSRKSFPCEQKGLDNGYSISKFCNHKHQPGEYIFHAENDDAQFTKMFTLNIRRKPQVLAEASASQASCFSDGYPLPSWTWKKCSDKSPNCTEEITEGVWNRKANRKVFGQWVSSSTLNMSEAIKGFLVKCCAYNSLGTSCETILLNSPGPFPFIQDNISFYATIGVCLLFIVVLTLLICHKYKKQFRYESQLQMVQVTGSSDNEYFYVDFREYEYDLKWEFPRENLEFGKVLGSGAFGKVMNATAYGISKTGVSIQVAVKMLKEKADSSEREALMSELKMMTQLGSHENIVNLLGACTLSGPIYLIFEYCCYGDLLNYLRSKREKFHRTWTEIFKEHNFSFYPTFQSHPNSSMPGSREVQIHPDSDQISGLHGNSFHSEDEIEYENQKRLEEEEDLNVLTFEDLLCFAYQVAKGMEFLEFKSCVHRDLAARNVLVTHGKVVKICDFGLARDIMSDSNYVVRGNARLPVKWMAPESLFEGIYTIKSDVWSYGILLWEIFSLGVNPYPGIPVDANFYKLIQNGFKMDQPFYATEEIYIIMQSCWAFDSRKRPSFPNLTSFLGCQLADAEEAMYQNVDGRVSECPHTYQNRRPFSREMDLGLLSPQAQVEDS
Sequence of JAK2 (O60674 whole entry): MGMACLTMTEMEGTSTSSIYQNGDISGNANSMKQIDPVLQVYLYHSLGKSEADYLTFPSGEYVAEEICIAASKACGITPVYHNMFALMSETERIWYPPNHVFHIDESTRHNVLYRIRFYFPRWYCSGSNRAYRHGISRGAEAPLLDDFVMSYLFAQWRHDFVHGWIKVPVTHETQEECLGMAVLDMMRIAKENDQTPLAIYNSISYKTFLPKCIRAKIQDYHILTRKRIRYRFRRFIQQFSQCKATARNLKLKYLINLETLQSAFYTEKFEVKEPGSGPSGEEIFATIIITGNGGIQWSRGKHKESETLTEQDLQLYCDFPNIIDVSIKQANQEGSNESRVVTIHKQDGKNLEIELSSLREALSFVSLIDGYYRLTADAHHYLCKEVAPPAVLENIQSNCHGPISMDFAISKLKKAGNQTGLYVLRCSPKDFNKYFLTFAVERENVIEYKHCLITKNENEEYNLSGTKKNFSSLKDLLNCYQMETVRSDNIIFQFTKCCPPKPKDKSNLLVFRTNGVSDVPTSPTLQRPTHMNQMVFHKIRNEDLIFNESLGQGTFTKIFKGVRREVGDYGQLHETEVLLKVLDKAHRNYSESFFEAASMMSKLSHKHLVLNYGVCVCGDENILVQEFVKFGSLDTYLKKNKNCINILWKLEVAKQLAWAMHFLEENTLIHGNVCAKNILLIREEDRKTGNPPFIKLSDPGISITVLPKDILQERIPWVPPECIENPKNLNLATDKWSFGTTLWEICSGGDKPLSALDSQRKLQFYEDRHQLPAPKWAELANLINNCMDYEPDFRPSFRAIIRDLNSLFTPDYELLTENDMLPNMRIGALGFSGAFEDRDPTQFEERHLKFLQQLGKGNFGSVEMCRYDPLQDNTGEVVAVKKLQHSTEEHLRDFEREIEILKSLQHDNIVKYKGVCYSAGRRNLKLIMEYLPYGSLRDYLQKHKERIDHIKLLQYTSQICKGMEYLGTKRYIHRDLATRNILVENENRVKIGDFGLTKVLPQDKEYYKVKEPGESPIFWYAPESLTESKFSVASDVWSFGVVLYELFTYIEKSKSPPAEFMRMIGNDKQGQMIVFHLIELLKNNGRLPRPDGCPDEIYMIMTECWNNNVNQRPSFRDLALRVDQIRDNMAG
Sequence of TYK2 (P29597 whole entry): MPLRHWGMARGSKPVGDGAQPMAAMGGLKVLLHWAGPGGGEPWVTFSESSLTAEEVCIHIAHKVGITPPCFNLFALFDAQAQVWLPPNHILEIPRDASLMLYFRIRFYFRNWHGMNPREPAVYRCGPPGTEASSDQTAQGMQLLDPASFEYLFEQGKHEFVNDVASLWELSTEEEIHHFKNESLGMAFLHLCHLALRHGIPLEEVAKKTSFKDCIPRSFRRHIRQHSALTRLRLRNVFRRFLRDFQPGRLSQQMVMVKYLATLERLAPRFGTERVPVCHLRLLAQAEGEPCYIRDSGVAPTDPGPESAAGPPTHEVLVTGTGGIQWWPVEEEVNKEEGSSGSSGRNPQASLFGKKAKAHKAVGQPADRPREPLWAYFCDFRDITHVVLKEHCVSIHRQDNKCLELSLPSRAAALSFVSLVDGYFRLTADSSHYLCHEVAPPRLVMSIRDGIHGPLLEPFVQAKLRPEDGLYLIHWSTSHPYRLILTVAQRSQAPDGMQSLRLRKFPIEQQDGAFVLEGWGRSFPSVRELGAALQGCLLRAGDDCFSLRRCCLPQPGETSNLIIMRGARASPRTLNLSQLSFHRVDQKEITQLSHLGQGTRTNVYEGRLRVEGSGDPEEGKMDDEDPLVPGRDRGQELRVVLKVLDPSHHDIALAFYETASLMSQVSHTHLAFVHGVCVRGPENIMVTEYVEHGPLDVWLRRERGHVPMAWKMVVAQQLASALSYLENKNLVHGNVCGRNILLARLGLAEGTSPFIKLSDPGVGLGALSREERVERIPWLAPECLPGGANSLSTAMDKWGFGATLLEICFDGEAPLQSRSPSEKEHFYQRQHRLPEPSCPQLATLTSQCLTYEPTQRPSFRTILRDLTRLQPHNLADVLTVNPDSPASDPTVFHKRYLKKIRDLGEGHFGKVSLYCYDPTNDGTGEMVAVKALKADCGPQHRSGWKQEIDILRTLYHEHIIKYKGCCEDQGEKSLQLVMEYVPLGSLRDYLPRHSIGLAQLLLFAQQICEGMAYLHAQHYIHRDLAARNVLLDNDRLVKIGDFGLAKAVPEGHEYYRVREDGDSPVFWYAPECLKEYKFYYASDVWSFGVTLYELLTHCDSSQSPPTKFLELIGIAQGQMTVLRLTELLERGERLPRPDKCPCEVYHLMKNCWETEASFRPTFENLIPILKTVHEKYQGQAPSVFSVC

% inhibition at 250 nM (TYK2): > 90 | % inhibition at 250 nM (JAK1): > 90 | % inhibition at 250 nM (JAK3): > 90 | % inhibition at 250 nM (FLT3): > 90 | % inhibition at 250 nM (NUAK2): > 90 | % inhibition at 250 nM (LRRK2): > 90 | % inhibition at 250 nM (JAK2): > 90 | % inhibition at 250 nM (NUAK1): > 90 | % inhibition at 250 nM (TNK1): > 90
Structure (SMILES): CN1CCN(c2ccc(Nc3ncc(Cl)c(NC[C@H]4CCCO4)n3)cc2)CC1 [(R)-9bMS]
